In patent US7217735B1, “Methods and compositions for enhancing delivery of therapeutic agents to tissues” (priority 1999, dated 2007):
Where two headings read alike, the source gives them in different places. Marks after values point to notes of the source that are not given here.

Columns and labels:
FaDu xenograft tumors = assay: Paclitaxel efflux from tumor histocultures; type: in vitro ADME, human
patient ovarian tumors [1] = assay: Paclitaxel efflux from tumor histocultures; type: in vitro ADME, human
MAT-LyLu prostate tumor = assay: Effect of pretreatment on paclitaxel accumulation in tumors, in vivo infusion; set-up: species or system Copenhagen rat
Source text: (§1) Experiments were initiated when the tumor was between 0.3 to 0.5 g in size.
(§2) The jugular vein and carotid artery of tumor-bearing rats were catheterized, under light ether anesthesia, with polyethylene tubing (PE-50, Becton Dickinson Co., Sparks, Md.) for drug administration and for blood sampling, respectively. Each catheter was exteriorized to the dorsal side of the neck and attached to a second polyethylene tubing (PE-50), respectively. The catheters and tubings were covered with a metal coil tubing. […] Blood samples (0.12 or 0.22 ml) were obtained at predetermined times. Plasma fraction was obtained by centrifugation at 2,000 g for 3 min, and stored at −70° C. for HPLC analysis. At the end of the experiment, tumors were harvested. One quarter of a tumor was fixed in 10% neutralized formalin solution and processed for tissue morphology evaluation. Tumor cell density and the fraction of apoptotic cells were determined by counting the number of tumor cells and apoptotic cells in nonnecrotic regions at 400× magnification (5 microscopic fields/tumor). The remainder of the tumor was stored at […] until HPLC analysis for drug concentration.
(§3) Preweighed tumors were homogenized, mixed with the internal standard, 100:1 cephalomanine (10:g/ml in methanol). The HPLC stationary phase consisted of a cleaning column (NovaPak C8, 75×3.9 mm ID, 4:m particle size, Waters Associates, Milford, Mass.) and an analytical column (Bakerbond Octadecyl, 250×4.6 mm ID, 5:m particle size, J. T. Baker, Phillipsburg, N.J.). Samples were injected onto the clean-up column and eluted with the clean-up mobile phase (37.5% acetonitrile in Water) at 1 ml/min.

[2] = as above; set-up: species or system Copenhagen rat; conditions: male, Copenhagen, rat; for Kp: tumor and plasma, intravenous, read-out: Tumor-to-plasma conc. ratio at end of Tx
Source text: as §1, §2, §3

patient ovarian tumors [3] = assay: Paclitaxel uptake in tumor histocultures
Protocol: (§4) The specimens were washed with culture medium for three times and dissected into about 1 mm^3 fragments under sterile conditions. The culture medium consisted of a 1:1 mixture of MEM/DMEM for patient tumors, MEM for FaDu xenografts, and RPMI1640 for PC3 xenografts, supplemented with 9% heat-inactivated FBS, 2 mM glutamine, 0.1 mM non-essential amino acids (only for MEM/DMEM), 90:g/ml gentamicin and 90:g/ml cefotaxime sodium. Five histoculture fragments were placed on a 1 cm^2 piece of presoaked collagen gel and incubated with 4 ml culture medium in 6-well plates. After 2 to 4 days, tumor histocultures were used to study the kinetics of drug penetration.
(§5) At predetermined times, 100 μl of medium was taken from each well and the histocultures were removed from the plates. The histocultures were blot-dried on a filter paper and their weights were measured. One hundred 1 of medium or tumor samples were mixed with 0.5 ml of Solvable tissue/gel solubilizer, incubated at 50° C. in an oven overnight, and analyzed for total radioactivity using liquid scintillation counting. […] Drug concentration in tissue was calculated as (drug amount) divided by (tissue weight) and was expressed in molar terms.
(§6) The study design of experiments using patient tumors was dictated by the size of the specimens. On some occasions, specimens from an individual patient were only sufficient to study drug uptake and efflux at one or more but not all drug concentrations. A total of 7 head and neck tumors and 3 ovarian tumors were used. For the FaDu xenograft tumor, specimens from individual animals were sufficiently large that each tumor was used for studying uptake and efflux at all four drug concentrations.
The statistical significance of the differences among patient (head and neck and ovarian, n=6) and FaDu (n=3) tumors, at equal initial medium concentrations, were analyzed by the two-tailed unpaired Student's t-test.

[4] = test system: patient and xenograft tumors; assay: Paclitaxel efflux from tumor histocultures, all three tumor types
Protocol: as §4, §5
The study design of experiments using patient tumors was dictated by the size of the specimens. […]

[5] = test system: patient head and neck tumors; assay: Paclitaxel efflux from tumor histocultures
Protocol: as §4, §5, §6
After replacing the drug-containing medium with drug-free medium, the drug concentration remaining in histocultures at 24 and 72 hours post-treatment were analyzed to determine the time to reach 50% of the pseudo steady state level (T1/2,efflux). The statistical significance of the differences among patient (head and neck and ovarian, n=6) and FaDu (n=3) tumors, at equal initial medium concentrations, were analyzed using a unpaired t-test.

[6] = initial Cmedium 120 nM for 24 hr, at 24 hr post-treatment
[7] = initial Cmedium 120 nM for 24 hr, at 72 hr post-treatment
[8] = initial Cmedium 1,200 nM for 24 hr, at 24 hr post-treatment
[9] = initial Cmedium 1,200 nM for 24 hr, at 72 hr post-treatment
[10] = initial Cmedium 1,200 nM for 24 hr
[11] = Group 1: 5 mg/kg/hr x 1 hr, then 0.83 x 6 hr at 24 hr, total 10 mg/kg
[12] = Group 2A: 5 mg/kg/hr x 1 hr at 0 hr, total 5 mg/kg, at 1 hr
[13] = Group 2B: 5 mg/kg/hr x 1 hr at 0 hr, total 5 mg/kg, at 24 hr
[14] = Group 3: 0.83 mg/kg/hr x 6 hr at 0 hr, total 5 mg/kg
[15] = Group 4: 5 mg/kg/hr x 1 hr at 0 hr + 0.83 x 6 hr at 1.2 hr, total 10 mg/kg
[16] = Group 5: 0.83 mg/kg/hr x 12 hr, total 10 mg/kg

Question: Which results are given for `CC(=O)O[C@H]1C(=O)[C@@]2(C)[C@H]([C@H](OC(=O)c3ccccc3)[C@]3(O)C[C@H](OC(=O)[C@H](O)[C@@H](NC(=O)c4ccccc4)c4ccccc4)C(C)=C1C3(C)C)[C@]1(OC(C)=O)CO[C@@H]1C[C@@H]2O` [paclitaxel]?
Answer: Cmedium (FaDu xenograft tumors; [6]): 0.989 ± 0.228 nM; Ctumor (FaDu xenograft tumors; [6]): 3.88 ± :M; Cmedium (FaDu xenograft tumors; [7]): 1.42 ± 0.18 nM; Ctumor (FaDu xenograft tumors; [7]): 3.84 ± 1.04 :M; Cmedium (FaDu xenograft tumors; [8]): 12.2 ± 1.3 nM; Ctumor (FaDu xenograft tumors; [8]): 23.2 ± :M; Cmedium (FaDu xenograft tumors; [9]): 18.9 ± 5.5 nM; Ctumor (FaDu xenograft tumors; [9]): 17.7 ± 3.7 :M; % remaining in tumor (patient ovarian tumors [1]; [6]): 39.8 ± 14.2%; Cmedium (patient ovarian tumors [1]; [6]): 1.19 ± 0.24 nM; Ctumor (patient ovarian tumors [1]; [6]): 0.615 ± :M; % remaining in tumor (patient ovarian tumors [1]; [7]): 35.7 ± 18.5%; Cmedium (patient ovarian tumors [1]; [7]): 1.60 ± 0.26 nM; Ctumor (patient ovarian tumors [1]; [7]): 0.520 ± 0.196 :M; T1/2,efflux (patient ovarian tumors [1]; [10]): 5.00 ± 2.93 h; % remaining in tumor (patient ovarian tumors [1]; [8]): 25.9 ± 8.3%; Cmedium (patient ovarian tumors [1]; [8]): 12.8 ± 3.41 nM; Ctumor (patient ovarian tumors [1]; [8]): 5.13 ± :M; % remaining in tumor (patient ovarian tumors [1]; [9]): 19.8 ± 6.6%; Cmedium (patient ovarian tumors [1]; [9]): 16.7 ± 2.9 nM; Ctumor (patient ovarian tumors [1]; [9]): 4.20 ± 1.79 :M; Apoptotic fraction (MAT-LyLu prostate tumor; [11]): 14.5 ± 2.5^b %; Cell density (MAT-LyLu prostate tumor; [11]): 83 ± 4.69^b; Plasma conc. at end of Tx (MAT-LyLu prostate tumor; [11]): 1.42 ± 0.11 :g/ml; Tumor conc. at specified time (MAT-LyLu prostate tumor; Group 1: 5 mg/kg/hr x 1 hr, then 0.83 x 6 hr at 24 hr, total 10 mg/kg, at 30 hr): 3.94 ± 0.35 :g/g; higher tumor concentration in Group 1 than sum of Group 2 at 24 hr and Group 3 at 6 hr (MAT-LyLu prostate tumor; Group 1 at 30 hr): 50%; Plasma conc. at end of Tx (MAT-LyLu prostate tumor; Group 2A: 5 mg/kg/hr x 1 hr at 0 hr, total 5 mg/kg): 6.01 ± 0.64 :g/ml; Apoptotic fraction (MAT-LyLu prostate tumor; [12]): 1.5 ± 0.9%; Cell density (MAT-LyLu prostate tumor; [12]): 120 ± 4.35; Tumor conc. at specified time (MAT-LyLu prostate tumor; [12]): 2.76 ± 0.57 :g/g; Apoptotic fraction (MAT-LyLu prostate tumor; [13]): 11.2 ± 2.3^c %; Cell density (MAT-LyLu prostate tumor; [13]): 85 ± 4.52; Tumor conc. at specified time (MAT-LyLu prostate tumor; [13]): <0.35 at :g/g; Apoptotic fraction (MAT-LyLu prostate tumor; [14]): 3.5 ± 1.5%; Cell density (MAT-LyLu prostate tumor; [14]): 112 ± 6.08; Plasma conc. at end of Tx (MAT-LyLu prostate tumor; [14]): 1.31 ± 0.12 :g/ml; Tumor conc. at specified time (MAT-LyLu prostate tumor; Group 3: 0.83 mg/kg/hr x 6 hr at 0 hr, total 5 mg/kg, at 6 hr): 2.26 ± 0.13 :g/g; Apoptotic fraction (MAT-LyLu prostate tumor; [15]): 5.8 ± 2.2%; Cell density (MAT-LyLu prostate tumor; [15]): 108 ± 5.78; Plasma conc. at end of Tx (MAT-LyLu prostate tumor; [15]): 2.98 ± 0.60 :g/ml; Tumor conc. at specified time (MAT-LyLu prostate tumor; Group 4: 5 mg/kg/hr x 1 hr at 0 hr + 0.83 x 6 hr at 1.2 hr, total 10 mg/kg, at 7.2 hr): 3.24 ± 0.31 :g/g; Apoptotic fraction (MAT-LyLu prostate tumor; [16]): 6.5 ± 1.6%; Cell density (MAT-LyLu prostate tumor; [16]): 115 ± 5.18; Plasma conc. at end of Tx (MAT-LyLu prostate tumor; [16]): 1.50 ± 0.06 :g/ml; Tumor conc. at specified time (MAT-LyLu prostate tumor; Group 5: 0.83 mg/kg/hr x 12 hr, total 10 mg/kg, at 12 hr): 2.95 ± 0.34 :g/g; higher cell (density) in Group 5 compared to Group 1 (MAT-LyLu prostate tumor; end of treatment): 25%; higher cell density in Group 4 compared to Group 1 (MAT-LyLu prostate tumor; end of treatment): 30%; lower apoptosis in Group 4 compared to Group 1 (MAT-LyLu prostate tumor; end of treatment): 60%; lower apoptosis in Group 5 compared to Group 1 (MAT-LyLu prostate tumor; end of treatment): 35%; lower drug concentration in Group 4 compared to Group 1 (MAT-LyLu prostate tumor; end of treatment): 18%; lower drug concentration in Group 5 at 12 hr than Group 1 at 30 hr (MAT-LyLu prostate tumor; rat, in vivo): 25%; difference between plasma concentrations at end of 6 and 12 hr infusions (MAT-LyLu prostate tumor; rats): 13%; half-life ([2]; plasma, rats, intravenous infusion, read-out: major half-life (converted)): 1.1 h; Kp ([2]; 5 mg/kg, Group 2A: 5 mg/kg/hr x 1 hr at 0 hr, total 5 mg/kg): 0.46 ± 0.09; Kp ([2]; 5 mg/kg, Group 3: 0.83 mg/kg/hr x 6 hr at 0 hr, total 5 mg/kg): 1.73 ± 0.18; Kp ([2]; 10 mg/kg, Group 1: 5 mg/kg/hr x 1 hr, then 0.83 x 6 hr at 24 hr, total 10 mg/kg): 2.8 ± 0.28; Kp ([2]; 10 mg/kg, Group 4: 5 mg/kg/hr x 1 hr at 0 hr + 0.83 x 6 hr at 1.2 hr, total 10 mg/kg): 1.2 ± 0.3; Kp ([2]; 10 mg/kg, Group 5: 0.83 mg/kg/hr x 12 hr, total 10 mg/kg): 1.98 ± 0.23; Mass balance (patient ovarian tumors [3]; initial Cmedium 12 nM): 89.3 ± 5.4%; Steady state Cmedium (patient ovarian tumors [3]; initial Cmedium 12 nM): 10.6 ± 0.7 nM; Steady state Ctumor (patient ovarian tumors [3]; initial Cmedium 12 nM): 1.32 ± 0.31 :M; Mass balance (patient ovarian tumors [3]; initial Cmedium 120 nM): 84.5 ± 7.3%; Steady state Cmedium (patient ovarian tumors [3]; initial Cmedium 120 nM): 86.4 ± 2.3 nM; Steady state Ctumor (patient ovarian tumors [3]; initial Cmedium 120 nM): 2.86 ± 1.28 :M; Mass balance (patient ovarian tumors [3]; initial Cmedium 1,200 nM): 85.2 ± 2.5%; Steady state Cmedium (patient ovarian tumors [3]; initial Cmedium 1,200 nM): 870 ± 2.6 nM; Steady state Ctumor (patient ovarian tumors [3]; initial Cmedium 1,200 nM): 30.1 ± 11.7 :M; Mass balance (patient ovarian tumors [3]; initial Cmedium 12,000 nM): 93.3 ± 4.5%; Steady state Cmedium (patient ovarian tumors [3]; initial Cmedium 12,000 nM): 10,500 ± 920 nM; Steady state Ctumor (patient ovarian tumors [3]; initial Cmedium 12,000 nM): 211 ± 80 :M; time at which drug concentration declined to pseudo steady state level [4]: 48 h; T1/2,efflux ([5]; initial Cmedium 120 nM for 24 hr): 7.45 ± 3.02 h; % remaining in tumor [5, 6]: 54.8 ± 3.1%; Cmedium [5, 6]: 1.13 ± 0.17 nM; Ctumor [5, 6]: 1.70 ± :M; % remaining in tumor [5, 7]: 43.3 ± 16.3%; Cmedium [5, 7]: 1.32 ± 0.14 nM; Ctumor [5, 7]: 1.19 ± 0.50 :M; T1/2,efflux [5, 10]: 3.33 ± 2.62 h; % remaining in tumor [5, 8]: 18.7 ± 6.2%; Cmedium [5, 8]: 7.69 ± 2.55 nM; Ctumor [5, 8]: 4.38 ± :M; % remaining in tumor [5, 9]: 16.0 ± 5.3%; Cmedium [5, 9]: 10.9 ± 1.1 nM; Ctumor [5, 9]: 4.17 ± 2.77 :M
